From patent US12156862B2, “Medicaments for the treatment of vasoconstriction related diseases or disorders” (Sulfateq B.V., priority 2017, dated 2024)
Marks after values point to notes of the source that are not given here.

Assays:
α1 adrenoceptor [1] = assay: Phenylephrine-induced constriction of isolated porcine intrarenal arteries (myography)
Method: (§1) Porcine kidneys were obtained from a local slaughterhouse (Kroon Vlees, Gotenburgweg 30, 9723 TM Groningen. The Netherlands) and transported on ice in normal physiological Krebs buffer containing 120 mM NaCl, 6 mM KCl, 2.5 mM CaCl2×2H2O, 1.2 mM MgCl2×6H2O, 1.2 mM NaH2PO4×H2O, 25 mM NaHCO3 and 11.4 mM D-(+)-Glucose monohydrate (all ingredients were purchased from Merck) in ultrapure water.
(§2) The renal artery tree was dissected from the kidney, cleaned of surrounding connective tissue and cut into equally-sized ring segments (2 mm in length). In some rings, endothelium denudation was performed by gentle rubbing of the intimal surface with a paper clip. Rings were mounted in organ baths as described previously (Buikema et al., 2000). Arterial rings were washed thoroughly by replacing Krebs buffer and allowed to equilibrate for a period of 60 min under 1.4 g of resting tension before they were assessed for viability by inducing 2 subsequent constrictions with KCl (60 mM). […] After washout and stabilization, rings were treated for 30 minutes by incubation with vehicle (0.1% DMSO), SUL-121, SUL-150 or SUL-151, followed by subsequent incubation with cumulative doses of phenylephrine.
Dose-dependent constriction responses to phenylephrine (10^−8M-10^−4M) were recorded in said isolated porcine intrarenal arteries. Buffer was warmed to 37° C. and aerated with 95% O2 and 5% CO2 before use.
Vascular constriction responses are expressed as percentage of final response to KCl. Data are expressed as mean±SEM. *p<0.05.
To explore the effects of the enantiomers of (6-hydroxy-2,5,7,8-tetramethylchroman-2-yl)(piperazin-1-yl)methanone (SUL-150 and SUL-151) on constriction of isolated porcine intrarenal arteries, cumulative dose response curves to the α1 adrenoceptor agonist phenylephrine (PE) were constructed in the presence and absence of SUL-150 and SUL-151.

[2] = test system: porcine intrarenal arteries (histamine induced constrictions); assay: Histamine-induced constriction of isolated porcine intrarenal arteries; settings: for logEC50 of histamine-induced constriction responses: Porcine renalis
Method: as §1, §2
(§3) To gain insight into receptor specificity of SUL-150, the effects of SUL-150 on histamine and U46619 (a synthetic thromboxane agonist) induced constrictions were investigated (FIG. 2).

thromboxane receptors = target: T1, thromboxane receptors (Sus scrofa, UniProt A0A287A102); assay: U46619-induced constriction of isolated porcine intrarenal arteries; settings: for logEC50 of U46619-induced constriction responses: Porcine renalis
T1 construct: from tissue; host or cells: porcine intrarenal artery rings
Method: as §1, §2, §3

[3] = target: T2, human histamine H1 receptor (Homo sapiens, UniProt P35367); assay: Histamine-induced intracellular calcium transients in HeLa cells; format: cell-based
T2 construct: HeLa cells endogenously expressing human histamine H1 receptor; endogenous in cells; host or cells: HeLa
Method: (§4) HeLa cells endogenously expressing histamine and TP receptors were grown in DMEM-F12 medium enriched with 10% FBS and 1% penicillin-streptomycin. Cells were kept in a tissue culture incubator at 37° C. in […] atmosphere and grown in 75 cm^2 non-treated cell culture flasks. Plating was performed 24 hours before measurement on black transparent-bottom 96-well plates at 20,000 cells per well density.
(§5) To confirm specificity of SUL-150 for the α1 adrenoceptor additionally histamine and U46619 induced calcium transients were studied in HeLa cells endogenously expressing human histamine H1 receptor.

TP receptors = target: T3, TP receptors (Homo sapiens, UniProt P21731); assay: U46619-induced intracellular calcium transients in HeLa cells; format: cell-based
T3 construct: HeLa cells endogenously expressing histamine and TP receptors; endogenous in cells; host or cells: HeLa
T3 sequence (P21731 1-343): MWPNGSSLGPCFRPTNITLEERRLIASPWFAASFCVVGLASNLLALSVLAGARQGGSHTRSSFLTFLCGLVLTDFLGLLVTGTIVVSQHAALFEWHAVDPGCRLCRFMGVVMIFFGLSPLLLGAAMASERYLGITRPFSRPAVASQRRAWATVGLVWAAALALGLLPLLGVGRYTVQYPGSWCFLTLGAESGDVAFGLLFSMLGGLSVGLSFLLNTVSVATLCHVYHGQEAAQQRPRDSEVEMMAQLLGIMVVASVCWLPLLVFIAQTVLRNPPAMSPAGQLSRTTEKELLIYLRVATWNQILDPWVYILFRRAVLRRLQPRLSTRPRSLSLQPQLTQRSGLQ
Method: as §4, §5

[4] = target: T4, human α1 adrenoceptor subtype A (Homo sapiens, UniProt P35348); assay: Phenylephrine-induced intracellular calcium (FLIPR Calcium 6) in CHO cells, α1A; format: cell-based
T4 construct: expressed in transfected cells; host or cells: CHO-K1
T4 sequence (P35348 1-466): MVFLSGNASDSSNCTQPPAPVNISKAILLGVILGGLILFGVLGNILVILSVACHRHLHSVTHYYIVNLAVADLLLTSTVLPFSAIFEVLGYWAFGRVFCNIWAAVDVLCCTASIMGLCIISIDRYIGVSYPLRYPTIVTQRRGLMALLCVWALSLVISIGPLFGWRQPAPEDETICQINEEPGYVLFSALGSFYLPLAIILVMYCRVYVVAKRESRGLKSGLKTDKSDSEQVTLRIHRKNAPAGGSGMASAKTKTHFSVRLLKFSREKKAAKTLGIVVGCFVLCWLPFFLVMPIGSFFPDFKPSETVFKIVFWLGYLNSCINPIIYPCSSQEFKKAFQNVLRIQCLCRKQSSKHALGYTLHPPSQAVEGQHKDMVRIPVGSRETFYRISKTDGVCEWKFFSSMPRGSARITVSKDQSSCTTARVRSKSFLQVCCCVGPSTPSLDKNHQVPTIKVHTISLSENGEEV
Method: (§6) CHO-K1 cells were stably transfected with a plasmid containing human al-AR subtypes A, B and D in separate cell lines in DMEM-F12 medium with 10% FBS, 1% penicillin-streptomycin and 200 μg/mL Geneticin (G418, Invitrogen, Carlsbad, CA).
(§7) On the next day, CHO cells were treated with either vehicle (0.1% DMSO) or SUL-121 enantiomers for 30 min at 37° C. and stimulated with a 3-fold dilution series of PE (20 μM-100 pM). [Ca^2], was measured using the fluorescent FLIPR Calcium 6 assay kit (Molecular Devices) in immortalized CHO cells stably expressing the α1 adrenoceptor.
(§8) Initially, calcium responses induced by non-cumulative concentration series of phenylephrine were investigated using fluorescent measurements in α1A adrenoceptor-overexpressing CHO cells treated with SUL-150 and SUL-151 (FIG. 4). Fluorescent measurement data was processed and analyzed in SoftMax Pro 7 and expressed as % of baseline AUC with a 3-fold multiplier using an average of first 10 measurement points as baseline.

[5] = target: T5, human α1 adrenoceptor subtype B (Homo sapiens, UniProt P35368); assay: Phenylephrine-induced intracellular calcium (FLIPR Calcium 6) in CHO cells, α1B; format: cell-based
T5 construct: expressed in transfected cells; host or cells: CHO-K1
T5 sequence (P35368 1-520): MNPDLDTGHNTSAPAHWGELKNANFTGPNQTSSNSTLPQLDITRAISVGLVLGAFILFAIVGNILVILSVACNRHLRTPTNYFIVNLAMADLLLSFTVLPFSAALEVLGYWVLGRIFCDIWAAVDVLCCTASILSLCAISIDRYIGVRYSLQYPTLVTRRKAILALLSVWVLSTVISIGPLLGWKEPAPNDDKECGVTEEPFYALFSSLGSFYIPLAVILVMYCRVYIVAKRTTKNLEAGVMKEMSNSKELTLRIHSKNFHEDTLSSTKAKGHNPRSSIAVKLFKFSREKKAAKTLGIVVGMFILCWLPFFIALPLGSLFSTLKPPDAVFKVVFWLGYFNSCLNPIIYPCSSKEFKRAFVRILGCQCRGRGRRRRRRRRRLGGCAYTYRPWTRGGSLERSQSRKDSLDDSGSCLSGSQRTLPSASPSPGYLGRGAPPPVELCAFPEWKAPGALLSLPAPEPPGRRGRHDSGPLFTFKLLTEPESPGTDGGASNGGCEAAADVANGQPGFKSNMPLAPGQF
Method: as §6, §7, §8

[6] = target: T6, human α1 adrenoceptor subtype D (Homo sapiens, UniProt P25100); assay: Phenylephrine-induced intracellular calcium (FLIPR Calcium 6) in CHO cells, α1D; format: cell-based
T6 construct: expressed in transfected cells; host or cells: CHO-K1
T6 sequence (P25100 1-572): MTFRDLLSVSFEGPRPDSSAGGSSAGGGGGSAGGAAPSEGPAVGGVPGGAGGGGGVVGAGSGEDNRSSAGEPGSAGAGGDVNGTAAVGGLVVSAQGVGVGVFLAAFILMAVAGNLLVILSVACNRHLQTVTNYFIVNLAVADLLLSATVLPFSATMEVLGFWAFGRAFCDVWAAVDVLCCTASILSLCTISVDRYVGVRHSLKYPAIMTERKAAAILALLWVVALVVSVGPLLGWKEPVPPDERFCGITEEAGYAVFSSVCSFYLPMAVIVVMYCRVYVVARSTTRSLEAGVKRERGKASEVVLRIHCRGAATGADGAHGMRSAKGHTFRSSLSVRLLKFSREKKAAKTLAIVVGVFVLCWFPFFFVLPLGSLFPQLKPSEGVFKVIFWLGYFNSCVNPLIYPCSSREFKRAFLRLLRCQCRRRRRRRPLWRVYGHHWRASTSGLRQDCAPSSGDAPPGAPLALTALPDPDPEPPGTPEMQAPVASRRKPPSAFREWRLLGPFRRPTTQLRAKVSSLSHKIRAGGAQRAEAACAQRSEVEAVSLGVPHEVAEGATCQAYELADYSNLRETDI
Method: as §6, §7, §8

α1A adrenoceptor = target: T7, α1A adrenoceptor (Homo sapiens, UniProt P35348); assay: Radiolabeled prazosin displacement binding assay in α1A adrenoceptor transgenic CHO cells; settings: [7-Methoxy-3H]-prazosin
T7 construct: expressed in transfected cells; host or cells: CHO-K1
T7 sequence (P35348 1-466): T4 sequence (P35348 1-466)
Text: We therefore explored whether SUL-150 could directly interact with the α1 adrenoceptor as a receptor antagonist.

α1 adrenoceptor [7] = assay: Methoxamine-induced constriction of isolated porcine intrarenal arteries
Method: as §1, §2
Additionally, the effects of SUL-150 were investigated on stimulation with methoxamine, which is an alternative α1 adrenoceptor agonist.

EGFR transactivation = assay: Phenylephrine-induced constriction of porcine intrarenal arteries pre-treated with EGFR blocker AG1478; settings: AG1478 20 μM and SUL-150 50 μM
Method: Inhibition of EGF receptor (EGFR) transactivation is known to inhibit α1 adrenoceptor mediated constrictions (REF). Therefore, we investigated the role of EGFR transactivation in SUL-150 mediated inhibition of vasoconstriction. For this, porcine intrarenal arteries were pre-treated with the EGFR blocker AG1478 (FIG. 3). First, an initial measurement was performed to determine the dose of AG1478 which would cause maximal inhibition of vascular constriction induced by PE (FIG. 3A). Subsequently, isolated arteries were treated with AG1478 (20 μM) and SUL-150 (50 μM) and studied for PE-induced vasoconstriction.

[8] = 10 μM SUL-150, calcium transients
[9] = 30 μM SUL-150, calcium transients
[10] = 100 μM SUL-150, calcium transients

T2 sequence (P35367 whole entry): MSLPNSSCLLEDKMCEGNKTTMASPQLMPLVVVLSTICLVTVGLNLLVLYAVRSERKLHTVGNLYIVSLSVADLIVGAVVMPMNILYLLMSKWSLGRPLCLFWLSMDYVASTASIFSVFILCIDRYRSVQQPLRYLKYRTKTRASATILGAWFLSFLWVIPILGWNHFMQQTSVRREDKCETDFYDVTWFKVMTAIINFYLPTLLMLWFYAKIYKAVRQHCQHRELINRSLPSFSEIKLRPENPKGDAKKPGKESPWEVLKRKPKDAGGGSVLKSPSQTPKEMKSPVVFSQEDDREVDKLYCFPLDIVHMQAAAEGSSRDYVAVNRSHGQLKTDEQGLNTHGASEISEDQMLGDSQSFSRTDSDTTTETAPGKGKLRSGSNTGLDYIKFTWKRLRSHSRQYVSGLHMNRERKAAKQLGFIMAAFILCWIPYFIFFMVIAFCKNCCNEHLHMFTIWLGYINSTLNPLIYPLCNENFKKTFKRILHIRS
T1 sequence (A0A287A102 1-343): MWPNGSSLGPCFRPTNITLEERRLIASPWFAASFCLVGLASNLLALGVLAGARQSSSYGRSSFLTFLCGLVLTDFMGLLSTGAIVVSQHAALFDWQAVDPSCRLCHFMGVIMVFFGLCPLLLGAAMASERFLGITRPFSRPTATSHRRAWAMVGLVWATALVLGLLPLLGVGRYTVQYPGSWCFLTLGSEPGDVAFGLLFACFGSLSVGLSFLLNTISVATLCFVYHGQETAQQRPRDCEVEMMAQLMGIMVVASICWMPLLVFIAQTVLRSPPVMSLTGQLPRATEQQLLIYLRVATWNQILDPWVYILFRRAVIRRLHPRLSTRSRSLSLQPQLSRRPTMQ

## Cc1c(C)c2c(c(C)c1O)CC[C@](C)(C(=O)N1CCNCC1)O2 [SUL-150, (R)(6-hydroxy-2,5,7,8-tetramethylchroman-2-yl)(piperazin-1-yl)methanone]
α1 adrenoceptor [1]; 10 μM test compound
  logEC50 of phenylephrine-induced constriction responses: −5.11 ± 0.09*
α1 adrenoceptor [1]; 30 μM test compound
  logEC50 of phenylephrine-induced constriction responses: −5.06 ± 0.06*
α1 adrenoceptor [1]; 100 μM test compound
  logEC50 of phenylephrine-induced constriction responses: −4.44 ± 0.09*
[2]; 30 μM SUL-150
  logEC50 of histamine-induced constriction responses: −4.86 ± 0.08
[2]; 30 μM and 100 μM, in words
  effect on constriction responses to histamine: did not affect
[2]; 100 μM SUL-150
  logEC50 of histamine-induced constriction responses: −4.85 ± 0.10
Thromboxane receptors; 30 μM SUL-150
  logEC50 of U46619-induced constriction responses: −7.58 ± 0.06
Thromboxane receptors; 100 μM SUL-150
  logEC50 of U46619-induced constriction responses: −7.50 ± 0.04
Thromboxane receptors; 100 μM SUL-150, in words
  shift in EC50 of U46619-induced constrictions: small effect size
[3]; [8]
  logEC50 of histamine-induced response, HeLa cells: −6.45 ± 0.05
[3]; [9]
  logEC50 of histamine-induced response, HeLa cells: −6.39 ± 0.05
[3]; [10]
  logEC50 of histamine-induced response, HeLa cells: −6.29 ± 0.06
[3]; in words
  effect on histamine induced calcium transients: did not significantly affect
TP receptors; [8]
  logEC50 of U46619-induced response, HeLa cells: −6.83 ± 0.10
TP receptors; [9]
  logEC50 of U46619-induced response, HeLa cells: −6.78 ± 0.18
TP receptors; [10]
  logEC50 of U46619-induced response, HeLa cells: −6.75 ± 0.10
TP receptors; in words
  effect on U46619 induced calcium transients: did not significantly affect
[4]; 10 μM test compound
  logEC50 of phenylephrine-induced calcium influx, α1A: −7.62 ± 0.03
[4]; 30 μM test compound
  logEC50 of phenylephrine-induced calcium influx, α1A: −7.28 ± 0.03
[4]; 100 μM test compound
  logEC50 of phenylephrine-induced calcium influx, α1A: −6.88 ± 0.03
[4]; in words
  effect on PE-induced calcium transients, α1 adrenoceptor subtype A: shifted dose response curves rightwards
[5]; 10 μM test compound
  logEC50 of phenylephrine-induced calcium influx, α1B: −7.51 ± 0.08
[5]; 30 μM test compound
  logEC50 of phenylephrine-induced calcium influx, α1B: −7.24 ± 0.07
[5]; 100 μM test compound
  logEC50 of phenylephrine-induced calcium influx, α1B: −6.72 ± 0.08
[5]; in words
  effect on PE-induced calcium transients, α1 adrenoceptor subtype B: shifted dose response curves rightwards
[6]; 10 μM test compound
  logEC50 of phenylephrine-induced calcium influx, α1D: −7.37 ± 0.10
[6]; 30 μM test compound
  logEC50 of phenylephrine-induced calcium influx, α1D: −7.04 ± 0.06
[6]; 100 μM test compound
  logEC50 of phenylephrine-induced calcium influx, α1D: −6.80 ± 0.10
[6]; in words
  effect on PE-induced calcium transients, α1 adrenoceptor subtype D: shifted dose response curves rightwards
α1A adrenoceptor
  potency in displacing the radioligand compared to SUL-151: more potent
α1 adrenoceptor [7]; SUL-150 pre-treatment (30 μM and 100 μM), intact endothelium
  effect on dose response curves to methoxamine: shifted rightward
α1 adrenoceptor [7]; endothelium-denuded rings
  effect on methoxamine induced constriction after removal of the endothelium: did not abrogate the effects of SUL-150
EGFR transactivation
  effect on PE-mediated constriction on top of AG1478: additional inhibitory effect
